Reference: ChEMBL document CHEMBL1121621, “Synthesis and antiarrhythmic activity of alpha, alpha-bis[(dialkylamino)alkyl]phenylacetamides” (J Med Chem, 1980)

Legend:
Canis familiaris [1] = experiment: Compound was evaluated for maximum reduction of ectopic beats after oral administration at a dose 25 mg/kg to dog.; format: functional, Canis lupus familiaris, Heart
Canis familiaris [2] = experiment: Compound was evaluated for duration of action after oral administration at a dose 25 mg/kg to dog.; format: functional, Canis lupus familiaris
Canis familiaris [3] = experiment: Minimum effective dose evaluated in mixed-breed or Beagle dogs after intravenous administration; format: functional; conditions: Canis lupus familiaris, read-out: MED
[4] = Therapeutic ratio in mixed-breed or Beagle dogs after intravenous administration of the compound.; format: ADME, Canis lupus familiaris; conditions: dog, in vivo, read-out: TR
Canis familiaris [5] = experiment: Activity duration index was evaluated in mixed-breed or Beagle dogs after intravenous administration.; format: functional, Canis lupus familiaris
Canis familiaris [6] = experiment: Antiarrhythmic activity was evaluated in mixed-breed or Beagle dogs after intravenous administration.; format: functional, Canis lupus familiaris, Heart
Canis familiaris [7] = experiment: Compound was evaluated for onset of action after oral administration at a dose 25 mg/kg to dog.; format: functional, Canis lupus familiaris
Canis familiaris [8] = experiment: Compound was evaluated for onset of action after oral administration at a dose 15 mg/kg to dog.; format: functional, Canis lupus familiaris
Canis familiaris [9] = experiment: Compound was evaluated for maximum reduction of ectopic beats after oral administration at a dose 15 mg/kg to dog.; format: functional, Canis lupus familiaris, Heart
Canis familiaris [10] = experiment: Compound was evaluated for duration of action after oral administration at a dose 15 mg/kg to dog.; format: functional, Canis lupus familiaris

Structure (SMILES)	Reduction (Canis familiaris [1]) [%]	Duration (Canis familiaris [2]) [min]	minimal effective dose (Canis familiaris [3]) [mg/kg]	selectivity ratio [4]	ADI (Canis familiaris [5])	AR (Canis familiaris [6])	Onset of action (Canis familiaris [7]) [min]	Onset of action (Canis familiaris [8]) [min]	Reduction (Canis familiaris [9]) [%]	Duration (Canis familiaris [10]) [min]
CC(C)N(CCC(CCN(C(C)C)C(C)C)(C(N)=O)c1ccc(Cl)cc1)C(C)C	100	>330	3	2.3	0.86	6.6	30			
CC(C)N(CCC(CCN1CCCCC1)(C(N)=O)c1ccc(F)cc1F)C(C)C (configuration not stated)			6	> 4	0.42	6				
CC(C)N(CCC(CCN(C)C)(C(N)=O)c1ccc(C(C)(C)C)cc1)C(C)C (configuration not stated)			5	1.3	0.76	4.9				
Cc1ccc(C(CCN(C(C)C)C(C)C)(CCN(C(C)C)C(C)C)C(N)=O)cc1			2	1.9		5.3				
CC(C)N(CCC(CCN(C)C)(C(N)=O)c1ccc(F)cc1)C(C)C (configuration not stated)			15	1.1	0.21	2.2				
CC(C)N(CCC(CCN(C(C)C)C(C)C)(C(N)=O)c1ccc(Cl)cc1Cl)C(C)C			1.5	4	2.14	7.6				
CC(C)N(CCC(CCN(C)C)(C(N)=O)c1ccccc1Cl)C(C)C (configuration not stated)			7.5	4.7	0.31	2.7				
CC(C)N(CCC(CCN(C(C)C)C(C)C)(C(N)=O)c1c(Cl)cccc1Cl)C(C)C			2.7	4.6	1.2	6.9				
CC(C)N(CCC(CCN(C)C1CCCCC1)(C(N)=O)c1ccccc1)C(C)C (configuration not stated)			2.7	4.1	1.36	7.1		300	69	30
CC(C)N(CCC(CCCN(C)C)(C(N)=O)c1ccccc1)C(C)C (configuration not stated)			20							
CC(C)N(CCC(CCn1cccc1)(C(N)=O)c1ccccc1)C(C)C (configuration not stated)			15	> 3.3	0.13	2.3				
CC(C)N(CCC(CCN1CCCCC1)(C(N)=O)c1ccc(C(C)(C)C)cc1)C(C)C (configuration not stated)			2.5	2.9	0.82	7.8				
CC1CCCCN1CCC(CCN(C(C)C)C(C)C)(C(N)=O)c1ccccc1F (configuration not stated)			7.5	3.2	0.6	4.6				
CC(C)N(CCC(CCN1CCCCC1)(C(N)=O)c1cccc(Cl)c1)C(C)C (configuration not stated)			2.3	3	0.7	4.4				
CC(C)N(CCC(CCN1CCCCCC1)(C(N)=O)c1ccccc1F)C(C)C (configuration not stated)			3	7.5	0.78	6.9				
CC(C)N(CCC(CCN1CCCCC1)(C(N)=O)c1ccccc1Br)C(C)C (configuration not stated)			1.5	13	1.2	7.2				
CC(C)N(CCC(CCCN1CCCCC1)(C(N)=O)c1ccccc1F)C(C)C (configuration not stated)			7.5	> 6	0.36	4.2				
CC(C)N(CCC(CCN(C)C1CCCCC1)(C(N)=O)c1ccccc1F)C(C)C (configuration not stated)	67	150	1.5	12.7	0.98	6	203			
CC(C)N(CCC(CCN1CCCCC1)(C(N)=O)c1ccccc1)C(C)C (configuration not stated)	97	>300	5.5	8.2	0.45	6.1	169			
CC(C)N(CCC(CCN(C(C)C)C(C)C)(C(N)=O)c1ccccc1)C(C)C	89	200	5.5	3.4	1.31	6.5	200			
CC(C)c1ccc(C(CCN2CCCCC2)(CCN(C(C)C)C(C)C)C(N)=O)cc1 (configuration not stated)			3	2	0.75	6.2				
C=C[C@H]1CN2CC[C@H]1C[C@@H]2[C@@H](O)c1ccnc2ccc(OC)cc12 [QUINIDINE]	57	110	13.5		0.4	2.2	110			
CC(C)N(CCC(CCN(C(C)C)C(C)C)(C(N)=O)c1cccc(Cl)c1)C(C)C			1.5	6.7	1.42	6.9				

Structure (SMILES)	Reduction (Canis familiaris [1]) [%]	Duration (Canis familiaris [2]) [min]	minimal effective dose (Canis familiaris [3]) [mg/kg]	selectivity ratio [4]	ADI (Canis familiaris [5])	AR (Canis familiaris [6])	Onset of action (Canis familiaris [7]) [min]	Onset of action (Canis familiaris [8]) [min]	Reduction (Canis familiaris [9]) [%]	Duration (Canis familiaris [10]) [min]
CC(C)N(CCC(CCN(C)C)(C(N)=O)c1ccccc1)C(C)C (configuration not stated)	100	200	12	> 7.5	0.4	2.6	131			
CC(C)N(CCC(CCN(C(C)C)C(C)C)(C(N)=O)c1ccccc1F)C(C)C	87	200	3	15	1.52	6.1	90			
CC(C)N(CCC(CCN(C(C)C)C(C)C)(C(N)=O)c1ccccc1Br)C(C)C			1.5	8	2.16	6.1				
CC(C)N(CCC(CCN(C(C)C)C(C)C)(C(N)=O)c1cccc(C(F)(F)F)c1)C(C)C			3	2.4	1.5	6				
CC(C)N(CCC(CCN1CCCCC1)(C(N)=O)c1ccc(F)cc1)C(C)C (configuration not stated)			8.3	1	0.58	4.4				
CC(C)N(CCC(CCN(C(C)C)C(C)C)(C(N)=O)c1cccc(F)c1)C(C)C			3	2.4	0.66	6				
CCN(CC)CCC(CCN(C(C)C)C(C)C)(C(N)=O)c1ccccc1 (configuration not stated)			7.5	5.5	0.94	4.6				
Cc1ccccc1C(CCN(C(C)C)C(C)C)(CCN(C(C)C)C(C)C)C(N)=O			1.5	6	2.57	6.6				
CC(C)N(CCC(CCN1CCOCC1)(C(N)=O)c1ccccc1)C(C)C (configuration not stated)	84	52	5	7.6		5.6	285			
CC(C)N(CCC(CCn1cccc1)(C(N)=O)c1ccccc1F)C(C)C (configuration not stated)			7.5	7.3	0.59	3.6				
CC(C)N(CCC(CCN1CCCCC1)(C(N)=O)c1ccc(Cl)cc1)C(C)C (configuration not stated)			3.5	1	0.51	6.6				
CC(C)N(CCC(CCN(C(C)C)C(C)C)(C(N)=O)c1ccc(F)cc1F)C(C)C			4.5	4.7	0.69	7.7				
CC(C)N(CCC(CCN1CC2CCC1CC2)(C(N)=O)c1ccccc1)C(C)C (configuration not stated)			3.5	4.6	1.38	6.7				
COc1ccc(C(CCN(C(C)C)C(C)C)(CCN(C(C)C)C(C)C)C(N)=O)cc1			4	3.1	1.33	6.5				
CC(C)N(CCC(CCN(C(C)C)C(C)C)(C(N)=O)c1ccc(F)cc1)C(C)C	92	147	2	12	1.19	6.7	88			
CC(C)N(CCC(CCN1CCN2CCCC2C1)(C(N)=O)c1ccccc1)C(C)C (configuration not stated)			10	> 5		2.7				
CC(C)N(CCC(CCN1CCCCCC1)(C(N)=O)c1ccccc1)C(C)C (configuration not stated)			3	8.7	0.68	6.8				
CC(C)N(CCC(CCN1C(C)CCCC1C)(C(N)=O)c1ccccc1F)C(C)C (configuration not stated)			3.3	6.7	2.2	8.3				
CC(C)N(CCC(CCCN(C)C)(C(N)=O)c1ccccc1F)C(C)C (configuration not stated)			12.5	> 4	0.12	1.8				
CC(C)N(CCC(CCN(C(C)C)C(C)C)(C(N)=O)c1ccc(Cl)c(Cl)c1)C(C)C			2.5	4.6	0.63	5.8				
CC(C)N(CCC(CCCN1CC2CCC(CC2)C1)(C(N)=O)c1ccccc1Cl)C(C)C (configuration not stated)			7	4	0.3	6.3				
CC(C)N(CCC(CCN(C(C)C)C(C)C)(C(N)=O)c1ccccc1Cl)C(C)C			2.5	3.5	1.57	6.5				
CC(C)N(CCC(CCCN1CCCCC1)(C(N)=O)c1ccccc1Cl)C(C)C (configuration not stated)			3.5	5	1.55	4.6				
